Literature values, collected in patent publication US20140004186A1, “COMPOSITIONS COMPRISING A FATTY ACID OIL MIXTURE COMPRISING EPA AND DHA IN FREE ACID FORM, A SURFACTANT, AND A STATIN” (Pronova Biopharma Norge AS, priority 2010, published 2014).

Experiments:
[1] = Table 7, other surfactants

Row | HBL Value [1] | oral bioavailability | SMILES
1 | 3.4 | – | CC(O)CO.CCCCCCCCCCCCCCCCCC(=O)O [Propylene glycol monostearate]
2 | – | 18% | CC[C@H](C)C(=O)O[C@H]1C[C@H](O)C=C2C=C[C@H](C)[C@H](CC[C@@H](O)C[C@@H](O)CC(=O)O)[C@H]21 [pravastatin]
3 | – | 20% | CC(C)c1nc(N(C)S(C)(=O)=O)nc(-c2ccc(F)cc2)c1/C=C/[C@@H](O)C[C@@H](O)CC(=O)O [rosuvastatin]
